Source: ChEMBL document CHEMBL3397021, “Synthesis and biological evaluation of 3-([1,2,4]triazolo[4,3-a]pyridin-3-yl)-4-(indol-3-yl)-maleimides as potent, selective GSK-3β inhibitors and neuroprotective agents” (Bioorg Med Chem, 2015)

How the values were obtained:
[1] = Neuroprotective activity against glutamate-induced neurotoxicity in Sprague-Dawley rat primary cerebellar granule neurons assessed as cell viability at 10 uM pre-incubated for 24 hrs before glutamate stimulation for 24 hrs by MTT assay; type: functional; details: Neuron, read-out: Activity
[2] = molecular target: Glycogen synthase kinase-3 beta (Homo sapiens, UniProt P49841)
Glycogen synthase kinase-3 beta, sequence (P49841 whole entry): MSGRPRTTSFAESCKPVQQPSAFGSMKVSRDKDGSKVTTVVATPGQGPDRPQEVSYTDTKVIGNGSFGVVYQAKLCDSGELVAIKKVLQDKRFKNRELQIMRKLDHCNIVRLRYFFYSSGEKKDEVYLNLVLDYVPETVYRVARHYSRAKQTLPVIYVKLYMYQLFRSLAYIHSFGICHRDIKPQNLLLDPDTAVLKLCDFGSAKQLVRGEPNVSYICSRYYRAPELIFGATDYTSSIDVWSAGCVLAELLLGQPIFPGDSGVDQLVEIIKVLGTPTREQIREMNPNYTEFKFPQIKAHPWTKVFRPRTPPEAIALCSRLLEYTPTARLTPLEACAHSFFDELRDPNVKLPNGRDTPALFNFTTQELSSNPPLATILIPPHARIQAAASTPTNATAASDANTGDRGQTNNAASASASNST
Description: Inhibition of recombinant GST-tagged GSK-3beta (unknown origin) expressed in Escherichia coli strain BL21-Codon Plus (DE3) using Ser/Thr 9 peptide substrate by Z'-LYTE kinase assay

SMILES | viability at 10 µM [1] | IC50 [2]
Cn1cc(C2=C(c3nnc4ccccn34)C(=O)NC2=O)c2ccccc21 | 83.6% | 154 nM
O=C1NC(=O)C(c2nnc3ccccn23)=C1c1cn(CCCO)c2ccccc12 |  | 121 nM
Cc1cccc2c(C3=C(c4nnc5ccccn45)C(=O)NC3=O)cn(C)c12 | 94.3% | 105 nM
COc1ccc2c(c1)c(C1=C(c3nnc4ccccn34)C(=O)NC1=O)cn2C |  | 942 nM
O=C1NC(=O)C(c2nnc3ccccn23)=C1c1cn(CCCN2CCOCC2)c2ccccc12 |  | 200 nM
O=C1NC(=O)C(c2nnc3ccccn23)=C1c1c[nH]c2ccccc12 |  | 477 nM
Cn1cc(C2=C(c3nnc4ccccn34)C(=O)NC2=O)c2cc(Cl)ccc21 | 95.1% | 74.1 nM
C=CCn1cc(C2=C(c3nnc4ccccn34)C(=O)NC2=O)c2ccccc21 |  | 73.6 nM
CC(C)n1cc(C2=C(c3nnc4ccccn34)C(=O)NC2=O)c2ccccc21 | 94.4% | 13 nM
Cn1cc(C2=C(c3nnc4ccccn34)C(=O)NC2=O)c2ccc(Cl)cc21 | 55.7% | 159 nM
Cn1cc(C2=C(c3nnc4ccccn34)C(=O)NC2=O)c2cc(F)ccc21 | 71.6% | 188 nM
Cn1cc(C2=C(c3nnc4ccccn34)C(=O)NC2=O)c2cc(Br)ccc21 | 93.5% | 63.5 nM
O=C1NC(=O)C(c2nnc3ccccn23)=C1c1cn(CCCn2ccnc2)c2ccccc12 | 60.6% | 36 nM
Cn1cc(C2=C(c3nnc4ccccn34)C(=O)NC2=O)c2ccc(Br)cc21 |  | 327 nM
CCCCn1cc(C2=C(c3nnc4ccccn34)C(=O)NC2=O)c2ccccc21 | 93.2% | 69.7 nM
Cn1cc(C2=C(c3nnc4ccccn34)C(=O)NC2=O)c2ccc(F)cc21 | 59.7% | 204 nM
